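GI50 = concentration required for 50% inhibition of growth. TGI: concentration producing complete growth inhibition.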
Assays:
Test in all cases: DTP human tumour cell line panel, 384-well format
COLO 205 colon = system: COLO 205 colon
HOP-92 NSCLC = system: HOP-92 NSCLC
HS 578T breast = system: HS 578T breast
IGROV1 ovarian = system: IGROV1 ovarian
MALME-3M melanoma = system: MALME-3M melanoma
OVCAR-4 ovarian = system: OVCAR-4 ovarian
OVCAR-8 ovarian = system: OVCAR-8 ovarian
SF-268 CNS = system: SF-268 CNS
SK-MEL-2 melanoma = system: SK-MEL-2 melanoma
SN12C renal = system: SN12C renal
SNB-75 CNS = system: SNB-75 CNS
U251 glioblastoma = system: U251 glioblastoma
UACC-257 melanoma = system: UACC-257 melanoma

## N#Cc1c(N)nc(N)nc1N[C@H](c1nc2c(F)ccc(Cl)c2c(=O)n1-c1cccnc1)C1CC1
COLO 205 colon
  GI50: 19.8 µM
  TGI: > 91.6 µM
HOP-92 NSCLC
  GI50: 0.677 µM
  TGI: 14.3 µM
HS 578T breast
  GI50: 1.79 µM
  TGI: 15.4 µM
IGROV1 ovarian
  GI50: 1.64 µM
  TGI: 4.18 µM
MALME-3M melanoma
  GI50: > 39.9 µM
  TGI: > 100 µM
OVCAR-4 ovarian
  GI50: 10.8 µM
  TGI: 52.7 µM
OVCAR-8 ovarian
  GI50: 13.4 µM
  TGI: 32.7 µM
SF-268 CNS
  GI50: 13.9 µM
  TGI: 51.1 µM
SK-MEL-2 melanoma
  GI50: 17.3 µM
  TGI: 39.3 µM
SN12C renal
  GI50: 4.29 µM
  TGI: > 100 µM
SNB-75 CNS
  GI50: 0.67 µM
  TGI: 5.1 µM
U251 glioblastoma
  GI50: 18.3 µM
  TGI: 61.9 µM
UACC-257 melanoma
  GI50: 19.5 µM
  TGI: > 100 µM

From PubChem BioAssay (NCI)
